Measurements: paper PMC12067145 (ACS Medicinal Chemistry Letters, 2025)

Key:
[1] = molecular target: Calcium Channel L-Type, Benzothiazepine (Rattus norvegicus, UniProt P22002); assay: Eurofins lead profiling screen (radioligand binding)
Bradykinin B2 = Bradykinin B2 (Homo sapiens, UniProt P30411); assay: as above
Prostanoid EP4 = Prostanoid EP4 (Homo sapiens, UniProt P35408); assay: as above
[2] = molecular target: Leukotriene, Cysteinyl CysLT1 (Homo sapiens, UniProt Q9Y271); assay: as above
Glutamate, Kainate = assay: as above; set-up: species or system Rat
[3] = system: GABAA, Flunitrazepam, Central; assay: as above; set-up: species or system Rat
Muscarinic M1 = Muscarinic M1 (Homo sapiens, UniProt P11229); assay: as above
Tachykinin NK1 = Tachykinin NK1 (Homo sapiens, UniProt P25103); assay: as above
Dopamine D2S = Dopamine D2S (Homo sapiens, UniProt P14416); assay: as above
Neuropeptide Y Y2 = Neuropeptide Y Y2 (Homo sapiens, UniProt P49146); assay: as above
Glucocorticoid = Glucocorticoid (Homo sapiens, UniProt P04150); assay: as above
Muscarinic M2 = Muscarinic M2 (Homo sapiens, UniProt P08172); assay: as above
Nicotinic Acetylcholine = assay: as above; set-up: species or system Human
Glutamate, NMDA, Glycine = Glutamate, NMDA, Glycine (Rattus norvegicus, UniProt P35439); assay: as above
[4] = molecular target: Transporter, Dopamine (DAT) (Homo sapiens, UniProt Q01959); assay: as above
Rolipram = assay: as above; set-up: species or system Rat
Sigma σ1 = Sigma σ1 (Homo sapiens, UniProt Q99720); assay: as above
Serotonin (5-HT1A) = Serotonin (5-HT1A) (Homo sapiens, UniProt P08908); assay: as above
Adenosine A1 = Adenosine A1 (Homo sapiens, UniProt P30542); assay: as above
Androgen (Testosterone) = Androgen (Testosterone) (Homo sapiens, UniProt P10275); assay: as above
[5] = system: Glutamate, NMDA, Phencyclidine; assay: as above; set-up: species or system Rat
Phorbol Ester = assay: as above; set-up: species or system Mouse
[6] = system: other K2P channels except TREK-2; assay: K2P channel selectivity (panel); type: cell-based
From the text: Herein we describe our continuing work on the K2P family of potassium ion channels with the chemical optimization of a selective and CNS penetrant series of TREK inhibitors, culminating in the discovery of ONO-TR-772 (VU6018042).

Kir2.2 = Kir2.2 (Homo sapiens, UniProt Q14500); assay: Cardiac ion channel MPC selectivity panel; type: cell-based
[7] = Liver microsome intrinsic clearance (mouse); type: in vitro ADME; details: pH 7.4; mouse liver microsomes; read-out: LMS CLINT mouse
Description: (§1) After a 5 min preincubation, the reaction was initiated by the addition of NADPH (1 mM). At selected time intervals between 0 ~ 60 min (e.g. 0, 3, 7, 15, 25, 45 and/or 60 min), aliquots were taken and subsequently placed into a 96-well plate containing cold acetonitrile with an internal standard (50 ng/mL carbamazepine). Plates were then centrifuged at 3000 rcf (4 °C) for 10 min, and the supernatant was transferred to a separate 96-well plate and diluted 1:1 with water for LC/MS/MS analysis. The in vitro half-life (T 1/2, min, Eq. 1), intrinsic clearance (CLint, mL/min/kg, Eq. 2), and subsequent predicted hepatic clearance (CLhep, mL/min/kg, Eq. 3) were determined employing the following equations: […]
(§2) where k represents the slope from linear regression analysis of the natural log percent remaining of a test compound as a function of incubation time […]
(§3) (2) CLint = in vitroT1/2 x mg microsomes x gram liver x kg body wt ascale-up factors: of 20 (human) or 45 (rat) or 87.5 (mouse) […]
(§4) where Qh (hepatic blood flow, mL/min/kg) is 21 (human) or 70 (rat) or 90 (mouse).
(§5) LC/MS/MS Bioanalysis of Samples from Plasma Protein Binding and Intrinsic Clearance […]
(§6) Samples were analyzed on a Thermo Electron TSQ Quantum Ultra triple quad mass spectrometer (San Jose, CA) via electrospray ionization (ESI) with two Themo Electron Accella pumps (San Jose, CA), and a Leap Technologies CTC PAL autosampler (Carrboro, NC). Analytes were separated by gradient elution on a dual column system with two Thermo Hypersil Gold (2.1 x 30 mm, 1.9 µm) columns (San Jose, CA) thermostated at 40 °C. HPLC mobile phase A was 0.1% formic acid in water and mobile phase B was 0.1% formic acid in acetonitrile. The gradient started […]
(§7) for 0.2 min; returned to 10% B in 0.1 min. The total run time was 1.3 min and the HPLC flow rate was 0.8 mL/min. While pump 1 ran the gradient method, pump 2 equilibrated the alternate column isocratically at 10% B. Compound optimization, data collection, and processing were performed using Thermo Electron's QuickQuan software (v2.3) and Xcalibur (v2.0.7 SP1). […]

[8] = Liver microsome intrinsic clearance (human); type: in vitro ADME; details: pH 7.4; human liver microsomes; read-out: LMS CLINT human
Description: as §1, §2, §3, §4, §5, §6, §7

KCNQ1 = KCNQ1 (Homo sapiens, UniProt P51787); assay: Cardiac ion channel MPC selectivity panel; type: cell-based
Kv1.5 = Kv1.5 (Homo sapiens, UniProt P22460); assay: Cardiac ion channel MPC selectivity panel; type: cell-based
[9] = Liver microsome intrinsic clearance (rat); type: in vitro ADME; details: pH 7.4; rat liver microsomes; read-out: LMS CLINT rat
Description: as §1, §2, §3, §4, §5, §6, §7

Kir2.1 = Kir2.1 (Homo sapiens, UniProt P63252); assay: Cardiac ion channel MPC selectivity panel; type: cell-based

Chain of Transporter, Dopamine (DAT) (Q01959 whole entry): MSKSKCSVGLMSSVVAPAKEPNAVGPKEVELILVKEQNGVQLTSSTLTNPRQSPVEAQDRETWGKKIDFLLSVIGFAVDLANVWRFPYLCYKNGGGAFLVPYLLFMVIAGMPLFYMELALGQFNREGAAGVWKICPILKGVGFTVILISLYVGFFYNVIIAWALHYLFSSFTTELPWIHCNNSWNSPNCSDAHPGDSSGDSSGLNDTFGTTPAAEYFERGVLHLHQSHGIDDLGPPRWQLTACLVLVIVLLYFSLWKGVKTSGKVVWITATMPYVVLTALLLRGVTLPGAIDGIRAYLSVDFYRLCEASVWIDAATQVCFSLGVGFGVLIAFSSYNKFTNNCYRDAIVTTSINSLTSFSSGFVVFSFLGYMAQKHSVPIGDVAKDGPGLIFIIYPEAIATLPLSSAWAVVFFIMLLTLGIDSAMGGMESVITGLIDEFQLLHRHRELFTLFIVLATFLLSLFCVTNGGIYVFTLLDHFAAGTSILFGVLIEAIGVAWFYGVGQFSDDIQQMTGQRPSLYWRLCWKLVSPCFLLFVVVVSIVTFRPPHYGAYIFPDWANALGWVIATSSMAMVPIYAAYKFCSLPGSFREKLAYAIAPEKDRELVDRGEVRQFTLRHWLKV
Chain of Bradykinin B2 (P30411 whole entry): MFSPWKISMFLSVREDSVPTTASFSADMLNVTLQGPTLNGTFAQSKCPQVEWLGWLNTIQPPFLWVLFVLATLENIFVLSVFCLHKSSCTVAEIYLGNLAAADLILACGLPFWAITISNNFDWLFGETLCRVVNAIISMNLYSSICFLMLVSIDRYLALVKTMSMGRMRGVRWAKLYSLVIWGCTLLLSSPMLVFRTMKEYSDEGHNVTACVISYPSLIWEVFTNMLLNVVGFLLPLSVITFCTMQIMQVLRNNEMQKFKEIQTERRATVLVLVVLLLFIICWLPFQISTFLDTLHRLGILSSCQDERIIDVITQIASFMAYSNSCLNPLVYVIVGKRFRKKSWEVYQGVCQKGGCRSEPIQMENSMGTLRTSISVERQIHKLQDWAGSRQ
Chain of Glucocorticoid (P04150 whole entry): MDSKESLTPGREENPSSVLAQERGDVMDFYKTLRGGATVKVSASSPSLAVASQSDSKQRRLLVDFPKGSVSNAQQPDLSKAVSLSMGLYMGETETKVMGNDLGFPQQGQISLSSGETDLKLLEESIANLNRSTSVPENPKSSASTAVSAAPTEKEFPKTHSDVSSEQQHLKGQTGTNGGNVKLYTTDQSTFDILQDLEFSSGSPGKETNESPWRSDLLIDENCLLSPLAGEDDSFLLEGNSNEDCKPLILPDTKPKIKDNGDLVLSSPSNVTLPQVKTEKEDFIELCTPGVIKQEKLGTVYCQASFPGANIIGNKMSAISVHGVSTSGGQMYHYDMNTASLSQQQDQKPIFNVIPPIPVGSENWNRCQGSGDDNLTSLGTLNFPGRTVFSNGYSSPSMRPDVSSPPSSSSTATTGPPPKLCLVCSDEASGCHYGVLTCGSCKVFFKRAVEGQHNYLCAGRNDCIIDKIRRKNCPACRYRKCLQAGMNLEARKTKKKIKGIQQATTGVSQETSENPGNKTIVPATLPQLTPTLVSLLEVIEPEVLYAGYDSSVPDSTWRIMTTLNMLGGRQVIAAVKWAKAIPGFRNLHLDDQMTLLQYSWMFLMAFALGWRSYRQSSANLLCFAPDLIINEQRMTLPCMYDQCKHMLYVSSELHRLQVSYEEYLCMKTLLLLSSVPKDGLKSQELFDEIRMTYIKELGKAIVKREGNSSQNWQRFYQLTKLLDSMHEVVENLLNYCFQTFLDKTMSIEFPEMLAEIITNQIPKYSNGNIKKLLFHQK
Chain of Muscarinic M2 (P08172 whole entry): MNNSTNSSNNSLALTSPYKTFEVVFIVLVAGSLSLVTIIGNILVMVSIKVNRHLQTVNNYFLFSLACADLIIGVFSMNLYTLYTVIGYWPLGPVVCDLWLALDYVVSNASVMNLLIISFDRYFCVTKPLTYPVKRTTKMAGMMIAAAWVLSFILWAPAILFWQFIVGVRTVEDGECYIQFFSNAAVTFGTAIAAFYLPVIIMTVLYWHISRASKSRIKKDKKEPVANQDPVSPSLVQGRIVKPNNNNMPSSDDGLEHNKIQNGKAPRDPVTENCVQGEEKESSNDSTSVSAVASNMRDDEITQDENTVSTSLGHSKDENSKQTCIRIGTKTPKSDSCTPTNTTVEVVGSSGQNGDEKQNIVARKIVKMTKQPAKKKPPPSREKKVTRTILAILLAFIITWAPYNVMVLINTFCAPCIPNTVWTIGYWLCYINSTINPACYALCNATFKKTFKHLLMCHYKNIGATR
Chain of Sigma σ1 (Q99720 whole entry): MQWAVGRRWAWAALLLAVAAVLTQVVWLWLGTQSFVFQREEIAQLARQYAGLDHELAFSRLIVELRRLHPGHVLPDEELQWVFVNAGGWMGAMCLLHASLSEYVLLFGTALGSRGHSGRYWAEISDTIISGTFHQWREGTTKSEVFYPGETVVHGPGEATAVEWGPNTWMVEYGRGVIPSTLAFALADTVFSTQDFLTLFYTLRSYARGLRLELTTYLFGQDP
Chain of Kir2.2 (Q14500 whole entry): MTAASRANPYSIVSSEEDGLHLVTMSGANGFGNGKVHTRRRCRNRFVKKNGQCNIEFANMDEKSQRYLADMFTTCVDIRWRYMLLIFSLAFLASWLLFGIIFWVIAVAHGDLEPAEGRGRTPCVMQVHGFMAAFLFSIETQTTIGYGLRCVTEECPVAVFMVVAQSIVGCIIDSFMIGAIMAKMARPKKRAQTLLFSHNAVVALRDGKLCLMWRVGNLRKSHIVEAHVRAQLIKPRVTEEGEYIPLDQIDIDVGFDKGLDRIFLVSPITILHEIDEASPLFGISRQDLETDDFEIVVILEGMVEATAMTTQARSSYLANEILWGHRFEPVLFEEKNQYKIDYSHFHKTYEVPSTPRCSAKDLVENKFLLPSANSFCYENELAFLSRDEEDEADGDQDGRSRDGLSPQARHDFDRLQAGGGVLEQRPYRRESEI
Chain of Dopamine D2S (P14416 1-414 isoform P14416-2): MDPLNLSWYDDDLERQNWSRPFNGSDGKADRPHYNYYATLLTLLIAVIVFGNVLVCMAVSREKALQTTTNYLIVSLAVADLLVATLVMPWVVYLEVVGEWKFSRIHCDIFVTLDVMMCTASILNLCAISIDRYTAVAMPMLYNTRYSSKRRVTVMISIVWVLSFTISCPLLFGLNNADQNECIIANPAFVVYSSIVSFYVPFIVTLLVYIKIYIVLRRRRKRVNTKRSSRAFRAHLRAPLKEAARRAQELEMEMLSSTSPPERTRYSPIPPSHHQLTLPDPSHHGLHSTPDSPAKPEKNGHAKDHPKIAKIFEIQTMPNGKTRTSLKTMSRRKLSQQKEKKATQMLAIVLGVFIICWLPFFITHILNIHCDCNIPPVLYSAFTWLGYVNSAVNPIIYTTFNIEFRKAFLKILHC
Chain of Serotonin (5-HT1A) (P08908 whole entry): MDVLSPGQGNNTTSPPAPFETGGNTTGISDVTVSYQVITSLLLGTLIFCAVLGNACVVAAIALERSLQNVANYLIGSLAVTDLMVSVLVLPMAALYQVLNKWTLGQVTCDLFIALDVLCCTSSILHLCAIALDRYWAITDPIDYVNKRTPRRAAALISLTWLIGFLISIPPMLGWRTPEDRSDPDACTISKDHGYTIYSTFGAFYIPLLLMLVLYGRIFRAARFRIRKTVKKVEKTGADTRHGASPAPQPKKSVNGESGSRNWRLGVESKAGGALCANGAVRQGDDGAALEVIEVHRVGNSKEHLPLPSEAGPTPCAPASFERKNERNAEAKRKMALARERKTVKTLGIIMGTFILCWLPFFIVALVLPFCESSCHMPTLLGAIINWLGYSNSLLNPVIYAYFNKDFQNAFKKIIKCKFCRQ
Chain of Leukotriene, Cysteinyl CysLT1 (Q9Y271 whole entry): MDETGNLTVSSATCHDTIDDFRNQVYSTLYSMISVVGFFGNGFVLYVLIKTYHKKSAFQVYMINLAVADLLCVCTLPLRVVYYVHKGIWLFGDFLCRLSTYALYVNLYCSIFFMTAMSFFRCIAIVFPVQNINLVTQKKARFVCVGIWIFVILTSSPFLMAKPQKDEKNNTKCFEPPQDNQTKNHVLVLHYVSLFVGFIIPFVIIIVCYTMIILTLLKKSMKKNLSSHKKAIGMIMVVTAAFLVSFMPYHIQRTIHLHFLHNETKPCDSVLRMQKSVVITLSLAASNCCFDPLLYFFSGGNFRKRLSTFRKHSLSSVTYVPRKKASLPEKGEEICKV
Chain of Kv1.5 (P22460 whole entry): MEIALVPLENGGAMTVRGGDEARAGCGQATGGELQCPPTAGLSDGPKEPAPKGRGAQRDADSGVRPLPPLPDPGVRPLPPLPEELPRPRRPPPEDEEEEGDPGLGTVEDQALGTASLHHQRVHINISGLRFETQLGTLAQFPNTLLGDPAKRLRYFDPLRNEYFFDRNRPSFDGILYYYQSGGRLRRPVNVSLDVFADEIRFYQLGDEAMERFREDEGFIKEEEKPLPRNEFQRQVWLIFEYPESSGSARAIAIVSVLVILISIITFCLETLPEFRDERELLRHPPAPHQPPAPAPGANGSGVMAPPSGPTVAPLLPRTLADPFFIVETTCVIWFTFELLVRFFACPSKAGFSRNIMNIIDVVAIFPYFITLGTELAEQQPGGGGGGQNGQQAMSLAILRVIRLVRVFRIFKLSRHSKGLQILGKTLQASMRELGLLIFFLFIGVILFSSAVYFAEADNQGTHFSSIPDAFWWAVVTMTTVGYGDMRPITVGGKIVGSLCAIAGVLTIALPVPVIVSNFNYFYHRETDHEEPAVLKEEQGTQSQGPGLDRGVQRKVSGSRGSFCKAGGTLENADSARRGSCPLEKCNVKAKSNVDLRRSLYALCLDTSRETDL

For `O=C(NCc1ccc(OC(F)(F)F)cc1F)c1ccc2ncnn2c1` [ONO-2920632], the inhibition at 10 µM [1] was 56%, the inhibition at 10 µM (Bradykinin B2) was -10% and the inhibition at 10 µM (Prostanoid EP4) was 19%. For the same molecule, the inhibition at 10 µM [2] was -7%, the “% Inhibition at 10 µM” value (Glutamate, Kainate) was 3% and the “% Inhibition at 10 µM” value [3] was -9%. It also gave an inhibition at 10 µM (Muscarinic M1) of 4%, an inhibition at 10 µM (Tachykinin NK1) of 13% and an inhibition at 10 µM (Dopamine D2S) of -1%. For the same molecule, the inhibition at 10 µM (Neuropeptide Y Y2) was 6%, the inhibition at 10 µM (Glucocorticoid) was -4% and the inhibition at 10 µM (Muscarinic M2) was 0%. The “% Inhibition at 10 µM” value (Nicotinic Acetylcholine) was -10%, the inhibition at 10 µM (Glutamate, NMDA, Glycine) was -6% and the inhibition at 10 µM [4] was 23%. For the same molecule, the “% Inhibition at 10 µM” value (Rolipram) was 5%, the inhibition at 10 µM (Sigma σ1) was 30% and the inhibition at 10 µM (Serotonin (5-HT1A)) was 4%. For the same molecule, the inhibition at 10 µM (Adenosine A1) was 2%, the inhibition at 10 µM (Androgen (Testosterone)) was 7% and the “% Inhibition at 10 µM” value [5] was -15%. The “% Inhibition at 10 µM” value (Phorbol Ester) was -7%.

With `Cc1cc(C#Cc2ccc(F)cc2)cnc1NC(=O)c1cc(NC(=O)OC(C)(C)C)ccc1Cl` [Compound 14c] the “activity versus other K2P channels except TREK-2” value [6] was greater than 10 µM, the “% at 10 μM, Kir2.2” value (Kir2.2) was 52% and the CLint scaled at 1 µM [7] was 13 mL/min/kg. For the same molecule, the CLint scaled at 1 µM [8] was 7.5 mL/min/kg, the “% at 10 μM, KCNQ1” value (KCNQ1) was less than 50% and the “% at 10 μM, Kv1.5” value (Kv1.5) was less than 50%. The CLint scaled at 1 µM [9] was 29 mL/min/kg and the “% at 10 μM, Kir2.1” value (Kir2.1) was less than 50%.
